Test: Inhibition of mouse GAT3 expressed in human HEK293 cell line assessed as inhibition of [3H]GABA uptake measured after 40 mins […]

For CN(CCC=C1c2ccccc2CCc2ccccc21)C(CCN)C(=O)NCc1ccccc1Cl (configuration not stated), which IC50 is on record?
The IC50 was 8.13 µM.

Which IC50 does the source give for CN(CCC=C1c2ccccc2-c2ccccc21)C(CCO)C(=O)NCc1ccc(Cl)cc1 (configuration not stated) here?
Its IC50 is 10.2 µM.

For CC(=O)NCCC(C(=O)NCc1ccc(C)cc1)N(C)CCC=C1c2ccccc2CCc2ccccc21 (configuration not stated), which IC50 is on record?
The IC50 was 5.62 µM.

For CN(CCC=C1c2ccccc2-c2ccccc21)C(CCO)C(=O)NCc1ccccc1Cl (configuration not stated), which IC50 is on record?
Its IC50 is 16.2 µM.

For CC(=O)NCCC(C(=O)NCc1ccc(Cl)cc1)N(C)CCC=C1c2ccccc2CCc2ccccc21 (configuration not stated), which IC50 is on record?
Its IC50 is 14.5 µM.

For CN(CCC=C1c2ccccc2CCc2ccccc21)C(CCO)C(=O)NCc1ccccc1Cl (configuration not stated), which IC50 is on record?
The IC50 was 12.6 µM.

Which IC50 does the source give for Cc1ccc(CNC(=O)C(CCO)N(C)CCC=C2c3ccccc3CCc3ccccc32)cc1 (configuration not stated) here?
Its IC50 is 12.6 µM.

Which IC50 does the source give for CN(CCC=C1c2ccccc2C=Cc2ccccc21)C(CCO)C(=O)NCc1ccc(F)cc1 (configuration not stated) here?
The IC50 was 12.3 µM.

Which IC50 does the source give for CN(CCC=C1c2ccccc2CCc2ccccc21)C(CCN)C(=O)NCc1ccc(Cl)cc1 (configuration not stated) here?
The IC50 was 5.13 µM.

With CN(CCC=C1c2ccccc2CCc2ccccc21)C(CCO)C(=O)NCc1ccc(F)cc1 (configuration not stated) as the molecule, how does the IC50 read?
The IC50 was 16.6 µM.

For CN(CCC=C1c2ccccc2C=Cc2ccccc21)C(CCO)C(=O)NCc1ccccc1Cl (configuration not stated), which IC50 is on record?
Its IC50 is 8.91 µM.

With Cc1ccsc1C(=CCCN(C)[C@H]1CCCC[C@H]1C(=O)O)c1sccc1C as the molecule, how does the IC50 read?
Its IC50 is 933 µM.

For Cc1ccc(CNC(=O)C(CCN)N(C)CCC=C2c3ccccc3CCc3ccccc32)cc1 (configuration not stated), which IC50 is on record?
Its IC50 is 4.79 µM.

For CN(CCC=C1c2ccccc2-c2ccccc21)C(CCO)C(=O)NCc1ccccc1 (configuration not stated), which IC50 is on record?
The IC50 was 12.6 µM.

For Cc1ccc(CNC(=O)C(CCO)N(C)CCC=C2c3ccccc3C=Cc3ccccc32)cc1 (configuration not stated), which IC50 is on record?
The IC50 was 17 µM.

Which IC50 does the source give for CN(CCC=C1c2ccccc2C=Cc2ccccc21)C(CCO)C(=O)NCc1ccccc1 (configuration not stated) here?
Its IC50 is 13.5 µM.

Which IC50 does the source give for CN(CCC=C1c2ccccc2CCc2ccccc21)C(CCO)C(=O)NCc1ccccc1 (configuration not stated) here?
Its IC50 is 11.5 µM.

With CN(CCC=C(c1ccccc1)c1ccccc1)C(CCN)C(=O)NCc1ccccc1Cl (configuration not stated) as the molecule, how does the IC50 read?
Its IC50 is 10 µM.

Which IC50 does the source give for CN(CCC=C1c2ccccc2C=Cc2ccccc21)C(CCO)C(=O)NCc1ccc(Cl)cc1 (configuration not stated) here?
Its IC50 is 13.5 µM.

Which IC50 does the source give for CN(CCC=C1c2ccccc2-c2ccccc21)C(CCO)C(=O)NCc1ccc(F)cc1 (configuration not stated) here?
The IC50 was 13.5 µM.

For Cc1ccc(CNC(=O)C(CCO)N(C)CCC=C2c3ccccc3-c3ccccc32)cc1 (configuration not stated), which IC50 is on record?
Its IC50 is 20 µM.

With CN(CCC=C1c2ccccc2CCc2ccccc21)C(CCN)C(=O)NCc1ccc(F)cc1 (configuration not stated) as the molecule, how does the IC50 read?
The IC50 was 4.79 µM.

Reference: BindingDB's records for doi:10.1016/j.ejmech.2021.113512 (Jagiellonian University Medical College, 2021)
